Among the data in patent publication US20220380402A1, “6-HYDRAZINOADENOSINE COMPOUNDS WITH A2A ADENOSINE RECEPTOR AGONIST ACTIVITY” (ACADEMY OF MILITARY MEDICAL SCIENCES, priority 2019, published 2022) are Ki and melting point values, retold here.

One data set concerns the target T1, A2A adenosine receptor (Homo sapiens, UniProt P29274).
T1 construct: purchased PerkinElmer Research Products (Boston, Mass.); host or cells: HEK-293 cells, stably transfected; membrane preparation
The data set is described as follows: Radioligand binding test ([3H]CGS21680 displacement, hA2A HEK-293 cell membrane). The following applies: calculated from IC50 by Cheng and Prusoff equation; [3H]CGS21680 25 nM, Km 22 nM; 25° C., 90 minutes. The procedure: [3H]CGS21680 (2-[p-(2-carboxyethyl)phenylethylamino]-5′-N-ethylformamidoadenosine, [carboxy-1-ethyl-3H(N)]; 250 μCi) was purchased from PerkinElmer Research Products (Boston, Mass.).
Cell membrane stably transfected with (human) A2A adenosine receptor was prepared in HEK-293 cells. The cell membrane was obtained from PerkinElmer Research Products (Boston, Mass.).
CGS21680 (2-[p-(2-carboxyethyl)phenylethylamino]-5′-N-ethylformamidoadenosine) was purchased from Selleck (Shanghai, CN).
The A2A adenosine receptors used were all expressed in the cell membrane. […] The specific binding percentage of [3H]CGS21680 was calculated according to the CPM value, % specific binding of [3H]CGS21680=(CPMsample−CPMLow Control)/(CPMHigh Control−CPMLow Control)*100, in which
High Control was 0.5% DMSO, Low Control was 100 μM CGS21680. The IC50 value was calculated based on the compound concentration and the specific binding percentage of [3H]CGS21680 by curve fitting.
The inhibition constant (Ki) value was calculated from the IC50 value according to the Cheng and Prusoff equation, Ki=IC50/(1+[S]/Km), in which [S] was the concentration of the radioligand (25 nM), and Km was the human A2AAR dissociation constant (22 nM) of [3H]CGS21680. The inhibition constant Ki values for Compounds 1 to 20 of the present invention binding to A2A adenosine receptor were shown in Table 1.

T1 sequence (P29274 whole entry): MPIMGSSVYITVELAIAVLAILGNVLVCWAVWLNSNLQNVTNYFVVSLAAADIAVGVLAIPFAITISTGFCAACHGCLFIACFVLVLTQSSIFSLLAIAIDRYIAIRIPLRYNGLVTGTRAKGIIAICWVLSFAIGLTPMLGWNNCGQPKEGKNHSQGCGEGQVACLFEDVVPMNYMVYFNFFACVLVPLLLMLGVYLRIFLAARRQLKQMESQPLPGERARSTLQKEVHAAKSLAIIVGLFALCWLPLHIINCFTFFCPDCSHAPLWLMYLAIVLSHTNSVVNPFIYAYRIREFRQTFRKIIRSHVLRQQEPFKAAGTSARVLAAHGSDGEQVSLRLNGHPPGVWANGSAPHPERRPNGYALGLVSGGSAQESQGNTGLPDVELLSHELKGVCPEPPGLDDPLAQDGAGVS

As for `OC[C@H]1O[C@@H](n2cnc3c(N/N=C/c4ccc[nH]4)ncnc32)[C@H](O)[C@@H]1O` [Compound 1, (2R,3R,4S,5R)-2-{6-{2-[(E)-(1H-pyrrol-2-yl)methylene]hydrazino}-9H-purin-9-yl}-5-(hydroxymethyl)tetrahydrofuran-3,4-diol], the melting point (commonly the temperature, or range, at which the solid turns liquid) amounted to 160 °C. Further, the Ki (commonly the equilibrium dissociation constant of an inhibitor or competing ligand from its target) at A2A adenosine receptor is 945 nM.
Regarding `CSCC/C=N/Nc1ncnc2c1ncn2[C@@H]1O[C@H](CO)C(O)C1O` (stereo partly drawn) [Compound 2, (2R,3S,4R,5R)-2-(hydroxymethyl)-5-{6-{2-[(E)-3-(methylthio)propylene]hydrazino}-9H-purin-9-yl}tetrahydrofuran-3,4-diol], the melting point was found to be 94 °C. In addition, on A2A adenosine receptor, the Ki was 2150 nM.
The like results for `CC(=O)Nc1ccc(/C=N/Nc2ncnc3c2ncn3[C@@H]2O[C@H](CO)C(O)C2O)cc1` (stereo partly drawn) [Compound 3, N-{4-{(E)-{2-{9-[(2R,3R,4S,5R)-3,4-dihydroxy-5-(hydroxymethyl)tetrahydrofuran-2-yl]-9H-purin-6-yl}hydrazino}methyl}phenyl}acetamide] were, in that order, 170 °C and 3.6 nM.
In the case of `OC[C@H]1O[C@@H](n2cnc3c(N/N=C/c4ccc(OCc5ccccc5)c(OCc5ccccc5)c4)ncnc32)C(O)C1O` (stereo partly drawn) [Compound 4], the melting point was 186 °C. The Ki on A2A adenosine receptor is above 10000 nM.
The like results for `OC[C@H]1O[C@@H](n2cnc3c(N/N=C/c4ccc(C(F)(F)F)cc4C(F)(F)F)ncnc32)[C@H](O)[C@@H]1O` [Compound 6, (2R,3R,4S,5R)-2-{6-{2-[(E)-2,4-bis(trifluoromethyl)benzylidene]hydrazino}-9H-purin-9-yl}-5-(hydroxymethyl)tetrahydrofuran-3,4-diol] were, in that order, 200 °C and 1.2 nM.
In the same order, the values of `OC[C@H]1O[C@@H](n2cnc3c(N/N=C/c4cccc(OCc5ccccc5)c4)ncnc32)[C@H](O)[C@@H]1O` [Compound 8, (2R,3R,4S,5R)-2-{6-{2-[(E)-3-(benzyloxy)benzylidene]hydrazino}-9H-purin-9-yl}-5-(hydroxymethyl)tetrahydrofuran-3,4-diol] are 140 °C and 236 nM.
In the same order, the values of `OC[C@H]1O[C@@H](n2cnc3c(N/N=C/c4ccc(-c5ccccn5)cc4)ncnc32)[C@H](O)[C@@H]1O` [Compound 9, (2R,3S,4R,5R)-2-(hydroxymethyl)-5-{6-{2-[(E)-4-(pyridin-2-yl)benzylidene]hydrazino}-9H-purin-9-yl}tetrahydrofuran-3,4-diol] are 236 °C and 4590 nM.
`OC[C@H]1O[C@@H](n2cnc3c(N/N=C/c4ccc(-c5ccccc5)cc4)ncnc32)C(O)C1O` (stereo partly drawn) [Compound 10] came in with a melting point of 170 °C. Further, on A2A adenosine receptor, the Ki is 1900 nM.
In the same order, the values of `OC[C@H]1O[C@@H](n2cnc3c(N/N=C/c4ccc(N5CCCC5)cc4)ncnc32)[C@H](O)[C@@H]1O` [Compound 11, (2R,3S,4R,5R)-2-(hydroxymethyl)-5-{6-{2-[(E)-4-(pyrrolidin-1-yl)benzylidene]hydrazino}-9H-purin-9-yl}tetrahydrofuran-3,4-diol] are 202 °C and 2 nM.
For `OC[C@H]1O[C@@H](n2cnc3c(N/N=C/c4ccc(-n5ccnc5)cc4)ncnc32)[C@H](O)[C@@H]1O` [Compound 12, (2R,3R,4S,5R)-2-{6-{2-[(E)-4-(1H-imidazol-1-yl)benzylidene]hydrazino}-9H-purin-9-yl}-5(hydroxymethyl)tetrahydrofuran-3,4-diol], the melting point amounted to 222 °C. In addition, the Ki at A2A adenosine receptor is 15.4 nM.
In turn, `CCCOc1ccc(/C=N/Nc2ncnc3c2ncn3[C@@H]2O[C@H](CO)[C@@H](O)[C@H]2O)cc1` [Compound 13, (2R,3S,4R,5R)-2-(hydroxymethyl)-5-{6-{2-[(E)-4-propoxybenzylidene]hydrazino}-9H-purin-9-yl}tetrahydrofuran-3,4-diol] yielded a melting point of 202 °C. The inhibitory constant (Ki) on A2A adenosine receptor was 4470 nM.
In turn, `OC[C@H]1O[C@@H](n2cnc3c(N/N=C/c4ccc(C(F)(F)F)cc4)ncnc32)[C@H](O)[C@@H]1O` [Compound 14, (2R,3S,4R,5R)-2-(hydroxymethyl)-5-{6-{2-[(E)-4-(trifluoromethyl)benzylidene]hydrazino}-9H-purin-9-yl}tetrahydrofuran-3,4-diol] registered a melting point of 182 °C. The Ki at A2A adenosine receptor is 520 nM.
`CN(C)c1ccc(/C=C/C=N/Nc2ncnc3c2ncn3[C@@H]2O[C@H](CO)[C@@H](O)[C@H]2O)cc1` [Compound 17, (2R,3R,4S,5R)-2-{6-{2-{(1E,2E)-3-[4-(dimethylamino)phenyl]allylidene}hydrazino}-9H-purin-9-yl}-5-(hydroxymethyl)tetrahydrofuran-3,4-diol] yielded a melting point of 172 °C. For the same compound, the inhibition constant Ki at A2A adenosine receptor is 1.4 nM.
With `OC[C@H]1O[C@@H](n2cnc3c(N/N=C/c4ccc(Cl)c(C(F)(F)F)c4)ncnc32)C(O)C1O` (stereo partly drawn) [Compound 18], the melting point was 196 °C. For the same compound, the Ki on A2A adenosine receptor is 1470 nM.
As to `OC[C@H]1O[C@@H](n2cnc3c(N/N=C/c4ccc(N(c5ccccc5)c5ccccc5)cc4)ncnc32)C(O)C1O` (stereo partly drawn) [Compound 19], the melting point turned out to be 160 °C. The Ki at A2A adenosine receptor is 5580 nM.
The like results for `CCCCc1nc(/C=N/Nc2ncnc3c2ncn3[C@@H]2O[C@H](CO)[C@@H](O)[C@H]2O)c(Cl)[nH]1` [Compound 20, (2R,3R,4S,5R)-2-{6-{2-[(E)-(2-butyl-5-chloro-1H-imidazol-4-yl)methylene]hydrazino}-9H-purin-9-yl}-5-(hydroxymethyl)tetrahydrofuran-3,4-diol] were, in that order, 178 °C and 998 nM.
In turn, `CCCCC/C=C/C=C/C=N/Nc1ncnc2c1ncn2[C@@H]1O[C@H](CO)[C@@H](O)[C@H]1O` [Compound 21, (2R,3R,4S,5R)-2-{6-{2-[(1E,2E,4E)-deca-2,4-dien-1-ylidene]hydrazino}-9H-purin-9-yl}-5(hydroxymethyl)tetrahydrofuran-3,4-diol] yielded a melting point of 178 °C. The Ki on A2A adenosine receptor is 1.2 nM.
`OC[C@H]1O[C@@H](n2cnc3c(N/N=C/C4CCCCC4)ncnc32)[C@H](O)[C@@H]1O` [Compound 22, (2R,3R,4S,5R)-2-{6-{2-[(E)-cyclohexylmethylene]hydrazino}-9H-purin-9-yl}-5-(hydroxylmethyl)tetrahydrofuran-3,4diol] had a melting point of 132 °C. Further, the Ki at A2A adenosine receptor is 86.6 nM.
